The text below walks through data of the RepoRT retention time repository (doi:10.1016/j.chroma.2015.11.014).

SMILES strings stand for the structures.

The nature of the series: RP, Agilent ZORBAX Eclipse Plus C18, 150 × 2.1 mm, 3.5 µm, 40 °C, 0.3 mL/min, estimated dead time 1.1 min; A: water + 0.1% formic acid; B: acetonitrile + 0.1% formic acid; gradient (min/%B) 0/2 1/2 2/20 16.5/98 22/98. Conditions: stereoisomer not certain.

Take `Cc1ccc(C(C)NC(=O)C(NC(=O)OC(C)C)C(C)C)cc1` (stereo not drawn): the LC retention time was 11.9 min. For the compound `c1ccc2sc(C3CCCNC3)nc2c1` (stereo not drawn), the LC retention time was 5.62 min. The same measure for `CC12C=CC(=O)C=C1CCC1C2C(=O)CC2(C)C1CCC2(O)C(=O)CO` (stereo not drawn): 8.47 min; for `CC1(C)CC(OC(=O)CCCCCCCCC(=O)OC2CC(C)(C)NC(C)(C)C2)CC(C)(C)N1`: 6.57 min.

On to `CNc1c(C)n(C)n(-c2ccccc2)c1=O`, for which the LC retention time was 4.82 min. As to `O=c1[nH]c2ccccc2s1`, the LC retention time is 7.78 min. The same measure for `CC12CCC3C(CC=C4CC(O)CCC43C)C1CCC2=O` (stereo not drawn): 11.6 min; for `COc1ccc2cc(C(C)C(=O)O)ccc2c1` (stereo not drawn): 10.9 min. In the case of `COC1C=COC2(C)Oc3c(C)c(O)c4c(O)c(c5c(nc6cc(C)ccn65)c4c3C2=O)NC(=O)C(C)=CC=CC(C)C(O)C(C)C(O)C(C)C(OC(C)=O)C1C` (stereo not drawn), the LC retention time is 11.8 min. In the case of `CCCCCCC[N+](CCCCCCC)(CCCCCCC)CCCCCCC`, the LC retention time is 14.7 min. Turning to `CC1=CC(C)(C)Nc2ccccc21`, the LC retention time was 12.5 min. The same measure for `CC(C)NCC(O)COc1ccc(CC(N)=O)cc1` (stereo not drawn): 4.62 min; for `CSc1nc(NC2CC2)nc(NC(C)(C)C)n1`: 10.2 min. The same measure for `CC(Cc1ccc(C(C)C(=O)O)cc1)C(=O)O` (stereo not drawn): 8.48 min; for `CCP(=O)(CC)CC`: 5.15 min; for `Nc1nc(=S)c2[nH]cnc2[nH]1`: 2.69 min. Then `CCOP(=S)(OCC)Oc1cc(C)nc(C(C)C)n1`, with 14.5 min. On to `CCCC[N+]1(C)CCCCC1`, for which the LC retention time is 4.66 min. The same measure for `CCc1cccc(C)c1N`: 7.96 min; for `CC(NC(CCc1ccccc1)C(=O)O)C(=O)C1CCCN1C(=O)O` (stereo not drawn): 5.84 min; for `Nc1nc2c(ncn2CCC(CO)CO)c(=O)[nH]1`: 2.6 min. Then `Nc1nc(NC2CC2)c2ncn(C3C=CC(C(=O)O)C3)c2n1` (stereo not drawn), with 5.19 min; and `CCCc1nc(C(C)(C)O)c(C(=O)O)n1Cc1ccc(-c2ccccc2-c2nn[nH]n2)cc1`, with 7.36 min; and `Cc1cc(NS(=O)(=O)c2ccc(N)cc2)no1`, with 7.25 min.

For `CNC(=O)N(C)c1nc2ccccc2s1`, the LC retention time is 9.78 min.

On to `Oc1ccc(Nc2ccccc2)cc1`, for which the LC retention time was 10 min. As for `CC12CCC(=O)C=C1CCC1C2C(O)CC2(C)C1CCC2(O)C(=O)CO` (stereo not drawn), the LC retention time is 8.32 min.

As for `S=c1[nH]c2ccccc2s1`, the LC retention time was 9.12 min. Then `CCCSc1ccc2nc(NC(=O)OC)[nH]c2c1`, with 8.55 min; and `CC1(C)CC(O)CC(C)(C)N1O`, with 5.7 min; and `CC1(C)SC2C(NC(=O)C(N)c3ccc(O)cc3)C(=O)N2C1C(=O)O` (stereo not drawn), with 4.71 min. Take `Cc1cc2nc3[nH]c(=O)[nH]c(=O)c3nc2cc1C`: the LC retention time was 7.07 min. For `C=CC[N+](CC)(CC)Cc1ccccc1`, the LC retention time was 5.35 min. On to `CC12CCC3c4ccc(O)cc4CCC3C1CC(O)C2=O` (stereo not drawn), for which the LC retention time is 8.67 min. Then `COc1cc(C(=O)O)cc(OC)c1O`, with 5.7 min.

Regarding `CCCc1nc2c(C)cc(-c3nc4ccccc4n3C)cc2n1Cc1ccc(-c2ccccc2C(=O)O)cc1`, the LC retention time is 8.86 min. The same measure for `O=P(O)(Oc1ccccc1)Oc1ccccc1`: 8.14 min; for `NC(=O)CN1CCCC1=O`: 2.62 min; for `NP(=O)(c1ccccc1)c1ccccc1`: 7.41 min.

For the compound `Nc1ccn(C2CSC(C(=O)O)O2)c(=O)n1` (stereo not drawn), the LC retention time was 2.46 min. The same measure for `ON(Cc1ccccc1)Cc1ccccc1`: 8.96 min; for `COc1ccc(C(CN)C2(O)CCCCC2)cc1` (stereo not drawn): 6.32 min; for `O=C1NC(=O)C(c2ccccc2)(c2ccccc2)N1`: 9.18 min.

As for `Cn1cnc([N+](=O)[O-])c1Sc1ncnc2nc[nH]c12`, the LC retention time was 5.37 min. The same measure for `CN(Cc1cnc2nc(N)nc(N)c2n1)c1ccc(C(=O)NC(CCC(=O)O)C(=O)O)cc1` (stereo not drawn): 4.98 min. Then `O=C(c1ccccc1)c1ccc(O)cc1O`, with 11 min; and `CC(C)NCC(O)COc1cccc2[nH]ccc12` (stereo not drawn), with 5.15 min.

For `O=C(c1ccccc1)c1ccc2n1CCC2C(=O)O` (stereo not drawn), the LC retention time is 9.5 min. In the case of `O=C([O-])CCC[P+](c1ccccc1)(c1ccccc1)c1ccccc1`, the LC retention time is 7.19 min. On to `O=C1OC2(c3ccc(O)cc3Oc3cc(O)ccc32)c2ccccc21`, for which the LC retention time is 9.53 min.

On to `CC(C)C(=O)c1ccc(C(C)C(=O)O)cc1` (stereo not drawn), for which the LC retention time was 10.2 min. Consider `CCN(CC)C(=O)C(C#N)=Cc1cc(O)c(O)c([N+](=O)[O-])c1`, for which the LC retention time is 9.38 min.

Turning to `CCOC(=O)c1cncn1C(C)c1ccccc1` (stereo not drawn), the LC retention time is 8.83 min.

In the case of `CCCCCCCCCCCCCC[P+](CCCCCC)(CCCCCC)CCCCCC`, the LC retention time was 17.1 min. The same measure for `CCCCCCCCCCCCCN1CC(C)OC(C)C1` (stereo not drawn): 10.4 min; for `CSc1nc(N)nc2nc[nH]c12`: 4.91 min; for `COc1ccc(C(C[N+](C)(C)[O-])C2(O)CCCCC2)cc1` (stereo not drawn): 7.25 min.

Turning to `CNCC(c1ccc(OC)cc1)C1(O)CCCCC1` (stereo not drawn), the LC retention time was 6.44 min. As to `COC(=O)NN=Cc1c[n+]([O-])c2ccccc2[n+]1[O-]`, the LC retention time is 5.82 min. As for `c1ccc2n[nH]nc2c1`, the LC retention time is 5.88 min. Then `CNC(=O)ON=CC(C)(C)SC`, with 8.4 min; and `CCC1(c2ccccc2)C(=O)NCNC1=O`, with 6.35 min. Take `COc1nc(NC(C)C)nc(NC(C)C)n1`: the LC retention time is 7.39 min.

As for `CC1(C)CC(O)CC(C)(C)N1CCO`, the LC retention time was 2.16 min. Then `CCCCCCCCCCC(C(=O)OCC)[N+](C)(C)Cc1ccccc1` (stereo not drawn), with 11.7 min.

In the case of `CC(C)NCC(O)COc1ccc(CCO)cc1` (stereo not drawn), the LC retention time is 5.11 min. `O=C(c1ccccc1)c1ccccc1O`: the LC retention time is 13 min.

On to `c1ccc([P+](c2ccccc2)(c2ccccc2)c2ccccc2)cc1`, for which the LC retention time was 8.63 min. The same measure for `CC(N)c1nc2ccccc2s1` (stereo not drawn): 5.16 min; for `COC(=O)c1ccc(O)cc1`: 7.59 min. As to `O=C(NCc1ccccc1)NC1CCCCC1`, the LC retention time is 10.3 min. For the compound `CCC1OC(=O)CC(O)C(C)C(OC2OC(C)C(OC3CC(C)(O)C(O)C(C)O3)C(N(C)C)C2O)C(CC=O)CC(C)C(=O)C=CC(C)=CC1COC1OC(C)C(O)C(OC)C1OC` (stereo not drawn), the LC retention time is 8.18 min. Consider `CCCCCCCCCCC(C(=O)OC)[N+](C)(C)Cc1ccccc1` (stereo not drawn), for which the LC retention time is 11.2 min.

Take `O=C(O)c1ccc(O)cc1`: the LC retention time is 5.62 min. The same measure for `O=C(O)c1cc(O)c2c(c1)C(=O)c1cccc(O)c1C2=O`: 10.8 min; for `OCCN1CCN(CCCN2c3ccccc3C=Cc3ccccc32)CC1`: 7.24 min; for `CCCCCCCCCCCC[N+](C)(C)CCOc1ccccc1`: 12 min. The same measure for `N#CSCSc1nc2ccccc2s1`: 12.4 min; for `NC(=O)N1c2ccccc2CC(=O)c2ccccc21`: 8.32 min; for `CN1C=CN(Cc2ccccc2)C1`: 4.93 min.

Take `O=P(O)(O)Cc1ccccc1`: the LC retention time is 5.04 min. For `COc1ccc(OC)cc1`, the LC retention time is 10.1 min. In the case of `CSc1ncnc2c1ncn2C1OC(CO)C(O)C1O` (stereo not drawn), the LC retention time is 5.67 min. Then `COC(=O)CCCC[P+](c1ccccc1)(c1ccccc1)c1ccccc1`, with 8.3 min; and `C[N+](C)(C)c1ccccc1`, with 2.83 min; and `COc1cc(Cc2cnc(N)nc2N)cc(OC)c1O`, with 4.78 min. As to `c1ccc(C[P+](c2ccccc2)(c2ccccc2)c2ccccc2)cc1`, the LC retention time was 8.71 min.

On to `CCNCC(=O)Nc1c(C)cccc1C`, for which the LC retention time was 5.35 min. Take `CSc1ccc2c(c1)N(CCC1CCCCN1C)c1ccccc1S2` (stereo not drawn): the LC retention time is 9.47 min. The same measure for `CC(C)(C)[P+](=O)C(C)(C)C`: 7.1 min. Consider `O=C(NC1CCCCC1)NC1CCCCC1`, for which the LC retention time was 10.8 min. `COc1ccc(C(=O)c2ccc(OC)cc2O)c(O)c1`: the LC retention time was 12.7 min. The same measure for `CCCCCCCCn1sccc1=O`: 11.9 min; for `c1ccc(P(=N[P+](c2ccccc2)(c2ccccc2)c2ccccc2)(c2ccccc2)c2ccccc2)cc1`: 12.3 min. As for `CC(C)(c1ccc(O)c([N+](=O)[O-])c1)c1ccc(O)c([N+](=O)[O-])c1`, the LC retention time is 13.8 min. Regarding `COCC(C)N(C(=O)C(=O)O)c1c(C)csc1C` (stereo not drawn), the LC retention time was 8.21 min.

`O=C1CC(c2ccccc2)Oc2ccccc21` (stereo not drawn): the LC retention time is 12.6 min. Then `COc1ccc2c3c1OC1C(=O)C=CC4C(C2)N(C)CCC314` (stereo not drawn), with 5.06 min; and `Cc1ccc(S(=O)(=O)O)cc1`, with 5.4 min.

As for `CCCCCCCCC=CCCCCCCCC[N+](C)(C)C`, the LC retention time is 13.7 min. Regarding `CN(C)Cc1ccccc1`, the LC retention time is 4.42 min. Then `CCCCCCCCCCCCCC[N+](C)(C)Cc1ccccc1`, with 12.8 min; and `CC(C)CC(CN)CC(=O)O` (stereo not drawn), with 5.17 min.
